The values below come from ChEMBL document CHEMBL1149847, “Erigeroflavanone, a flavanone derivative from the flowers of Erigeron annuus with protein glycation and aldose reductase inhibitory activity” (J Nat Prod, 2008).

Series [1] can be described thus: Inhibition of advanced glycation end products formation after 14 days. In kind it is physicochemical.
In series [2] the target is Aldo-keto reductase family 1 member B1 (Rattus norvegicus, UniProt P07943). Put plainly: Inhibition of rat lens aldose reductase.

pIC50: −log10 of the molar value.

In the case of `N=C(N)NN` [PIMAGEDINE], the pIC50 in series [1] is 3.02.

As to `O=c1cc(-c2ccc(O)cc2)oc2cc(O)cc(O)c12` [APIGENIN], the figures for the pIC50 in series [1] and in series [2] were 4.05 and 5.18, respectively.

As for `COC(=O)C[C@]1(O)C(=O)c2c(O)cc(O)cc2O[C@]1(OC)c1ccc(O)c(O)c1` (relative stereo) [ERIGEROFLAVANONE], the pIC50 in series [2] is 4.33.

Consider `COC(=O)[C@H]1O[C@@H](Oc2cc(O)c3c(=O)cc(-c4ccc(O)cc4)oc3c2)[C@H](O)[C@@H](O)[C@@H]1O`, for which the pIC50 in series [2] is 5.04.

Turning to `O=c1c(O[C@@H]2O[C@H](CO)[C@@H](O)[C@H](O)[C@H]2O)c(-c2ccc(O)cc2)oc2cc(O)cc(O)c12` [ASTRAGALIN], the pIC50 in series [1] was 3.75.

On to `C[C@@H]1O[C@@H](Oc2c(-c3ccc(O)c(O)c3)oc3cc(O)cc(O)c3c2=O)[C@H](O)[C@H](O)[C@H]1O` [QUERCITRIN], for which, in series [2], the pIC50 is 6.80.

In series [2], `O=c1c(O)c(-c2ccc(O)cc2)oc2cc(O)cc(O)c12` [KAEMPFEROL] gave a pIC50 of 5.88.

Take `O=C(O)[C@H]1O[C@@H](Oc2cc(O)c3c(=O)cc(-c4ccc(O)cc4)oc3c2)[C@H](O)[C@@H](O)[C@@H]1O`: the pIC50 in series [1] is 3.97; in series [2], 5.89.

One may read the pIC50 as the IC50 on a negative log10 scale, so that one unit is a factor of ten. A high value points to a low IC50.
